Reference: patent US20240024291A1, “Uses of Dihydroorotate Dehydrogenase Inhibitors” (University of Maryland, Baltimore, priority 2022, published 2024)

Experiments:
Type in all cases: cell-based, human
[1] = test system: 913 neurosphere line; assay: Western blot for cleaved PARP1; settings: 10 nM
Description: (§1) Western Blots were performed using 25 µg of protein per sample loaded onto NuPAGE® Novex® 4-12% Bis-Tris protein gels and transferred onto nitrocellulose membranes that were then blocked with 5% BSA in PBS and 0.1% Tween (PBST). Primary antibody incubation was performed in 5% BSA in PBST at 4° C. overnight, and HRP-labeled secondary antibody incubation (1:5000) was performed for one hour at room temperature in 5% BSA in PBST.
(§2) Antibodies used for western blotting were acquired from the following sources: Cleaved PARP (Asp214) (D64E10) XP® Rabbit mAb, Cell Signaling Technology Cat#5625, RRID:AB_10699459, 1:1000 for Western blots. Phospho-H2AX, Millipore Cat#RRID:AB_2755003, 1:1000 for Western blots, and 1:250 for immunofluorescence imaging. p-Tubulin, Millipore Cat #MAB5564, RRID:AB 11212768, 1:10,000 for Western blots. p44/42 MAPK (Erk1/2) (137F5) Rabbit mAb (Cell Signaling Technology Cat #4695, RRID:AB_390779) 1:1000 for Western blots; Phospho-p44/42 MAPK (Erk1/2) (Thr202/Tyr204) (Cell Signaling Technology Cat #9101, RRID:AB_331646) 1:1000 for Western blots; Akt Antibody (Cell Signaling Technology Cat #9272, RRID:AB_329827) 1:1000 for Western blots; Phospho-Akt (Ser473) Antibody (Cell Signaling Technology Cat #9271, RRID:AB 329825) 1:1000 for Western blots.
(§3) Poly(ADP-ribose) polymerase 1 (PARP1) is a nuclear protein that is activated by binding to DNA lesions and catalyzes the poly(ADP-ribosyl)ation of various nuclear proteins, including PARP1 itself, to recruit the DNA repair machinery to DNA lesions (53, 54. When excessive DNA damage occurs, PARP1 is cleaved to generate an 89 kDa fragment shown to serve as a cytoplasmic PAR carrier to induce AIF-mediated apoptosis (55). Given the profound induction of DNA damage in compound 1-treated GBM neurospheres, the prevalence of the 89 kDa PARP1 fragment in control and 10 nM compound 1-treated cells was measured. Strikingly, a 9.7- and 56-fold increase in the level of cleaved PARP1 was found in 913 and 08-387 neurosphere lines, respectively, when cultured in normoxia. Similarly, a 9.9- and 71-fold increase was documented in the level of cleaved PARP1 in 913 and 08-387 neurosphere lines cultured in hypoxia (FIG. 6).

[2] = test system: 08-387 neurosphere line; assay: Western blot for cleaved PARP1; settings: 10 nM
Description: as §1, §2, §3

[3] = test system: 08-387 glioblastoma neurosphere line; assay: CellTiter-Glo in vitro proliferation assay; settings: for IC50: Homo sapiens
Description: A Biospherix X3, hypoxic incubation system, was maintained at 37° C., 1% 02, 5% CO2, and 94% N2 (Biospherix, Ltd—Parish, NY) to conduct in vitro hypoxic experiments. Cells were plated, then incubated in normoxia overnight before transferring the culture dishes to hypoxia for the duration indicated in the main text.
[…] Cell Titer-Glo® Luminescent Cell Viability Assay (Promega, Madison, WI, USA) was performed 72 hours after treatment. Luminescence was determined using a Cytation 5 reader and Gen5 software package (BioTek, Winooski, VT, USA).
The compound's efficacy was examined against a collection of genetically diverse patient-derived GSC lines in vitro. The IC50 profiles of compound 1 in the seven GSC lines tested were established using the CellTiter-Glo® reagent and calculated with GraphPad software.

[4] = test system: 08-387 glioblastoma neurosphere line; assay: gH2AX foci immunofluorescence (DNA damage); settings: IC50 dose
Description: (§4) The 913, 3691, 08-387, and 1079 glioblastoma neurosphere-derived cells (1×10^4) were treated with DMSO (control) or IC50 concentration of compound 1 and cultured in either normoxia or hypoxia for 48 hours. Cells were spun with a Milles Scientific Cyto-Tek Model 4325 cytocentrifuge slide centrifuge onto Superfrost slides (VWR-48311-703) at 1500 rpm for 5 minutes. Slides were rinsed briefly with Hanks Balanced Salt Solution (HBSS), fixed in 4% paraformaldehyde in PBS, and rinsed with HBSS twice to remove any residual fixative. Cells were permeabilized with PBS containing 0.1% Triton-X100 (PBST) for 15 minutes, then blocked for 1 hour with PBST with 5% BSA. The slides were incubated overnight at 4° C. with Phospho-H2AX antibody (see above), diluted 1:250 in PBST containing 5% BSA. Slides were rinsed three times with HBSS, then incubated for one hour at room temperature with donkey anti-mouse, Alexa488-conjugated, secondary antibody diluted 1:500 in PBST containing 5% BSA (see above). Cell nuclei were counterstained with DAPI (150 nM), and the slides were cover-slipped with Prolong antifade mounting media (Molecular Probes #P36961). Using a 40X objective, at least ten random high-power fields, per condition, were captured with a Nikon W-1 Spinning Disk confocal microscope through the University of Maryland Baltimore CIBR confocal facility. The number of yH2AX-positive foci per cell was counted using ImageJ (unige.ch/medecine/bioimaging/files/3714/1208/5964/CellCounting.pdf). Individual cells with ten or more foci were considered positive for significant DNA damage. At least 300 cells were analyzed in each sample.
(§5) Reduced de novo pyrimidine synthesis mediated by MCT4-depletion promoted an accumulation of DNA damage (29). To test and quantify the magnitude of compound 1 effect on DNA damage, the four compound 1 responsive GBM neurosphere lines 913, 3691, 08-387, and 1079 were cultured in normoxia (21% oxygen) and hypoxia (1% oxygen) with a model-specific IC50 dose of compound 1 for 48 hours followed by immunocytochemical analysis of the DNA-damage marker g-H2AX. Table 1 is a summary of IC50 (nM or mM) values established for the seven glioblastoma neurosphere lines

[5] = test system: 913 glioblastoma neurosphere line; assay: gH2AX foci immunofluorescence (DNA damage); settings: IC50 dose
Description: as §4, §5

[6] = test system: 3691 glioblastoma neurosphere line; assay: gH2AX foci immunofluorescence (DNA damage); settings: IC50 dose
Description: as §4, §5

[7] = test system: 1079 glioblastoma neurosphere line; assay: gH2AX foci immunofluorescence (DNA damage); settings: IC50 dose
Description: as §4, §5

Question: With `CCn1c(CO)nn(-c2cc(O[C@@H](C)C(F)(F)F)c(C(=O)Nc3c(F)cccc3Cl)cc2F)c1=O` [Compound 1, N-(2-chloro-6-fluorophenyl)-4-[4-ethyl-4,5-dihydro-3-(hydroxymethyl)-5-oxo-1H-1,2,4-triazol-1-yl]-5-fluoro-2-[(1S)-2,2,2-trifluoro-1-methylethoxy]-benzamide] as the compound, how does the “increase in the level of cleaved PARP1” value ([1]; 913, hypoxia) read?
Answer: Its value is 9.9 fold.

Question: What about the “increase in the level of cleaved PARP1” value ([1]; 913, normoxia) of the same compound?
Answer: The value was 9.7 fold.

Question: What about the “increase in the level of cleaved PARP1” value ([2]; 08-387, hypoxia) of the same compound?
Answer: Its value is 71 fold.

Question: What about the “increase in the level of cleaved PARP1” value ([2]; 08-387, normoxia) of the same compound?
Answer: The value was 56 fold.

Question: What about the “effect of uridine on growth inhibition” value ([3]; 08-387, with 100 mM uridine, all concentrations tested) of the same compound?
Answer: Its value is “entirely rescued”.

Question: What about the IC50 ([3]; 08-387, uridine rescue experiment, compound 1 alone, normoxia and hypoxia) of the same compound?
Answer: The IC50 was 1 to 10 nM.

Question: What about the IC50 ([3]; 72 h, 08-387, hypoxia) of the same compound?
Answer: Its IC50 is 11.4 nM.

Question: What about the IC50 ([3]; 72 h, 08-387, normoxia) of the same compound?
Answer: Its IC50 is 4.7 nM.

Question: And the “nuclei with multiple gH2AX-positive foci” value ([4]; 08-387, hypoxia, 48 hours (control 13.6%))?
Answer: Its value is 32%.

Question: What about the “nuclei with multiple gH2AX-positive foci” value ([4]; 08-387, normoxia, 48 hours (control 11.6%)) of the same compound?
Answer: Its value is 30%.

Question: And the “nuclei with multiple gH2AX-positive foci” value ([5]; 913, hypoxia, 48 hours (control 2.3%))?
Answer: The value was 23%.

Question: And the “nuclei with multiple gH2AX-positive foci” value ([5]; 913, normoxia, 48 hours (control 11%))?
Answer: The value was 89%.

Question: What about the g-H2AX positivity ([6]; 3691, hypoxia, 48 hours (control 11.3%)) of the same compound?
Answer: Its g-H2AX positivity is 44.2%.

Question: What about the g-H2AX positivity ([6]; 3691, normoxia, 48 hours (control 9%)) of the same compound?
Answer: The g-H2AX positivity was 46%.

Question: What about the g-H2AX positivity ([7]; 1079, hypoxia, 48 hours (control 16.2%)) of the same compound?
Answer: Its g-H2AX positivity is 38.4%.

Question: What about the g-H2AX positivity ([7]; 1079, normoxia, 48 hours (control 14.8%)) of the same compound?
Answer: Its g-H2AX positivity is 32.4%.
